Measured values taken from patent US20240217951A1, “PCSK9 INHIBITORS AND METHODS OF USE THEREOF” (AstraZeneca AB, priority 2022, published 2024).

Experiments:
[1] = biological target: T1, potassium ion channel hERG (human Ether-á-go-go-Related Gene) (Homo sapiens, UniProt Q12809); assay: Assay 5 - hERG assay (SyncroPatch 384PE patch clamp, CHO cells); type: cell-based; settings: geometric mean; CHO cells over-expressing hERG; read-out: Assay 5 (hERG Hu CHO IF EPh CR-Syncro) GMean IC50
T1 construct: expressed in transfected cells; host or cells: Chinese hamster ovary K1 (CHO)
Method: Assay 5—hERG Assay (Human Ether-á-go-go-Related Gene)
This assay (human Ether-á-go-go-Related Gene) measures activity of the compounds at the potassium ion channel hERG (human Ether-á-go-go-Related Gene).
Experiments were performed on the SyncroPatch 384PE high throughput patch clamp platform at room temperature and medium resistance chips with 4 patch holes per site. Chinese hamster ovary K1 (CHO) cell lines over-expressing the ion channel of choice (hERG) were used in assay-ready format and kept in liquid nitrogen or were used from live culture. Cells were either thawed and diluted in HBSS or were detached from flasks and resuspended in HBSS. HBSS comprised 140 mM NaCl, 4 mM KCl, 10 mM HEPES and 5 mM Glucose (pH7.4). The internal patch clamp solution was KF 120 mM, KCl 20 mM, HEPES 10 mM, EGTA 10 mM, and 25 PM Escin (pH 7.2). After the sealing process was complete, the external solution was exchanged for external patch clamp solution comprising NaCl 80 mM, KCl 4 mM, HEPES 10 mM, CaCl2 2 mM, MgCl2 1 mM, glucose 5 mM, and NMDG 60 mM (pH 7.4). All solutions were stored at room temperature, except Escin, which was stored at 4° C. All test compounds were dispensed in greiner-bio 384 well plates and tested in a 6 point cumulative assay (final DMSO concentration 0.33%). Only wells that passed previously agreed acceptance criteria for this platform were used in this analysis (30 MegaOhm seal resistance, Z prime >0.4 and current size >0.2 nA).

[2] = biological target: GSK3β (Glycogen synthase kinase-3 beta) (Homo sapiens, UniProt P49841); assay: Assay 6 - GSK3β assay (ThermoFisher Z-Lyte); type: biochemical; settings: geometric mean; ATP Conc: 10 μM; read-out: Assay 6 (GSK3β FRET-Z-Lyte CR) GMean IC50 (μM) ATP Conc: 10
Method: Assay 6—GSK3β Assay (ThermoFisher Assay)
This assay measures the activity of the compounds at GSK3β (Glycogen synthase kinase-3 beta).
The test compounds were screened in 1% DMSO (final) in the well. For 10 point titrations, 3-fold serial dilutions are conducted from the starting concentration of 10 μM.
Bar-coded Corning, low volume NBS, black 384-well plate • 1. 2.5 μL—4× Test Compound or 100 nL 100× plus 2.4 μL kinase buffer • 2. 5 μL—2× Peptide/Kinase Mixture • 3. 2.5 μL—4×ATP Solution • 4. 30-second plate shake • 5. 60-minute Kinase Reaction incubation at room temperature • 6. 5 μL—Development Reagent Solution • 7. 30-second plate shake • 8. 60-minute Development Reaction incubation at room temperature • 9. Read on fluorescence plate reader and analyse the data
In step 2, the 2×GSK3β (GSK3 beta)/Ser/Thr (Glycogen synthase kinase-3 beta/Serine/Threonine) 09 mixture is prepared in 50 mM HEPES (4-(2-hydroxyethyl)-1-piperazineethanesulfonic acid) pH 7.5, 0.01% BRIJ-35, 10 mM MgCl2, 1 mM EGTA (egtazic acid). The final 10 μL Kinase Reaction consists of 0.22-0.92 ng GSK3β (GSK3 beta) and 2 μM Ser/Thr 09 in 50 mM HEPES pH 7.5, 0.01% BRIJ-35, 10 mM MgCl2, 1 mM EGTA.
In step 3 the ATP Solution is diluted to a 4× working concentration in Kinase Buffer (50 mM HEPES pH 7.5, 0.01% BRIJ-35, 10 mM MgCl2, 1 mM EGTA).
In Step 6 the Development Reagent is diluted 1:512 in Development Buffer (10× Novel PKC Lipid Mix: 2 mg/mL Phosphatidyl Serine, 0.2 mg/mL DAG in 20 mM HEPES, pH 7.4, 0.3% CHAPS).
SelectScreen® Kinase Profiling Service uses XLfit from IDBS. The dose response curve is curve fit to model number 205 (sigmoidal dose-response model).

[3] = biological target: T2, PCSK9 (Homo sapiens, UniProt Q8NBP7, G670E/V474I); assay: biochemical
[4] = biological target: T2, PCSK9; assay: Assay 3 - PCSK9 LDL-C uptake assay in HepG2 cells; type: cell-based; design: TEV cleavage site (C); His6 (C); host or cells: added to HepG2 cells (ATCC #HB-8065); settings: 125 nM PCSK9, pHrodo Red-LDL, read-out: Assay 3 LDL uptake potency
Source text: Assay 3—PCSK9 LDL-C Uptake Assay
This assay measures for PCSK9 antagonist activity based on a test compound's capacity to restore LDL-C-uptake in HepG2 cells. The assay is based on exogenous PCSK9 and LDL-C complexed with a pH-sensitive dye. Outside the cells, at neutral pH, the pHrodo Red-LDL is dimly fluorescent but upon LDLR mediated endocytosis it fluoresces brightly. PCSK9 traffics the LDLR to intracellular degradation and reduces uptake of LDL-C. Inhibition of PCSK9 reduces LDLR degradation and the increased LDL-C uptake is quantified by fluorescence microscopy.
Preparation of Assay Reagents
Cell medium: MEM supplemented with 10% FBS, 1×NEAA and Sodium Pyruvate Assay medium: OptiMem supplemented with penicillin/streptomycin
Cells: HepG2 (ATCC #HB-8065)
Step by Step Protocol for Running the Assay:
• 1. Cryopreserved HepG2 cells were thawed in assay medium and centrifuged for 5 min at 250 g. Supernatant was discarded and the cell pellet resuspended in cell medium and counted with a Nucleocounter. Cells were again centrifuged 5 min at 250 g and the pellet was resuspended to 500000 cells/mL in assay medium. • 2. 20 μL of above cell mix was dispensed into black pclear TC treated 384 well plates with Multidrop Combi and left at room temperature for 20 minutes. • 3. Plates were incubated at 37° C., 5% CO2 for 24 h
• 1. Test compounds were prepared in concentration response in DMSO with a half-log dilution factor in DMSO in Echo 384 LDV plates starting at 10 mM. • 2. 30 nL of above test compounds were dispensed with Echo 655 to cells for a top concentration of 10 μM • 3. 10 μL PCSK9 in assay medium was dispensed to cells with Multidrop Combi for 125 nM final concentration in the wells. • 4. Plates were incubated at 37° C., 5% CO2 for 24 h
• 1. 10 μL pHrodo Red-LDL in assay medium was dispensed to cells with Multidrop Combi for 6 μg/mL • 2. Plates were incubated at 37° C., 5% CO2 and imaged with the Incucyte S3 after 4 h and 24 h
Image data was processed using Incucyte 2021, a software to identify cells and red fluorescent intensity. Screener was used to further process data. Data was normalized as % effect of the signal between median values of the on-plate controls of DMSO and 100 nM Evolocumab according to the formula % effect=−100*(x−DMSO)/(Evolocumab−DMSO) where x equals the measured signal. Concentration response data of the normalized values were fitted using a four-parameter logistic fit.

Sequence of GSK3β (Glycogen synthase kinase-3 beta) (P49841 whole entry): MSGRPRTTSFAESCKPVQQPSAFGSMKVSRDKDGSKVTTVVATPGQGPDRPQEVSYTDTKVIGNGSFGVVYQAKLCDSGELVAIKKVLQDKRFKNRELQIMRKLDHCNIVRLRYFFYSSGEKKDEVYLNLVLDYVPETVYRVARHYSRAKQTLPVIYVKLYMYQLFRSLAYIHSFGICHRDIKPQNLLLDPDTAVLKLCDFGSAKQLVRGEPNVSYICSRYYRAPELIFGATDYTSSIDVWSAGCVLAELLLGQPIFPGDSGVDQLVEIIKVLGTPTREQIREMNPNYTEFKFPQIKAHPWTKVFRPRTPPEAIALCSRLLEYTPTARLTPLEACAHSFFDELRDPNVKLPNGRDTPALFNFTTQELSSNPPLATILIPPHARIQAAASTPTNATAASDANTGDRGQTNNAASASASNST
T1 sequence (Q12809 whole entry): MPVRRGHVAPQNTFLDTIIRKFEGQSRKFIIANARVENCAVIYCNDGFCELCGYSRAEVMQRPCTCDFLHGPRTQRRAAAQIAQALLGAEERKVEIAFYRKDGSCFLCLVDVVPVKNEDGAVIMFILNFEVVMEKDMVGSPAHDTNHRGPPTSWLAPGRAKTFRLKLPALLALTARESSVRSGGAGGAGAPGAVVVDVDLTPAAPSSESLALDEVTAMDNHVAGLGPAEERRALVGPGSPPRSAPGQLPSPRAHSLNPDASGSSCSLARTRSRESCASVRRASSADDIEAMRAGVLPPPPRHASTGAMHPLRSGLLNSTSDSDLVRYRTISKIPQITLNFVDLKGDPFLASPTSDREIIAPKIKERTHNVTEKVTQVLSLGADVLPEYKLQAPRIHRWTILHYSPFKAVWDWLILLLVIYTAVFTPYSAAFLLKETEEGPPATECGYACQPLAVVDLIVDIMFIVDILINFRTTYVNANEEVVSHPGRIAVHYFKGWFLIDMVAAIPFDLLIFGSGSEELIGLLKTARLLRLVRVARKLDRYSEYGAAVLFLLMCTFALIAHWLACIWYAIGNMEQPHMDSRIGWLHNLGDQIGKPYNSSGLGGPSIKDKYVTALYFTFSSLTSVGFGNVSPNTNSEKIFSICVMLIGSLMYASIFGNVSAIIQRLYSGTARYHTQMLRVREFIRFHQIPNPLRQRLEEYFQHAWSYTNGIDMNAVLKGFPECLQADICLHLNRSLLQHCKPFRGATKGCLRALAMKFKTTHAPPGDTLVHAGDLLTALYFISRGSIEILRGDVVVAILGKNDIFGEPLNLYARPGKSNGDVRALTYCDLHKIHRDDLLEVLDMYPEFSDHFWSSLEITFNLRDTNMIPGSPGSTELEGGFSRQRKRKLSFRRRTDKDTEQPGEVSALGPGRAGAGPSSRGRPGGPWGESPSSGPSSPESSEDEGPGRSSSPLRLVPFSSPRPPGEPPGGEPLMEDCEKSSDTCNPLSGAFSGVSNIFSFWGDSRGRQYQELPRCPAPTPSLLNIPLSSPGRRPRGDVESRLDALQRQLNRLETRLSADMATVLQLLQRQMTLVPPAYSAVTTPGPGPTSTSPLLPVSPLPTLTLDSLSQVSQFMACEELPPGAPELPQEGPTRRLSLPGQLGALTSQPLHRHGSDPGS
T2 sequence (Q8NBP7 with tags, fused parts or gaps V474I/G670E): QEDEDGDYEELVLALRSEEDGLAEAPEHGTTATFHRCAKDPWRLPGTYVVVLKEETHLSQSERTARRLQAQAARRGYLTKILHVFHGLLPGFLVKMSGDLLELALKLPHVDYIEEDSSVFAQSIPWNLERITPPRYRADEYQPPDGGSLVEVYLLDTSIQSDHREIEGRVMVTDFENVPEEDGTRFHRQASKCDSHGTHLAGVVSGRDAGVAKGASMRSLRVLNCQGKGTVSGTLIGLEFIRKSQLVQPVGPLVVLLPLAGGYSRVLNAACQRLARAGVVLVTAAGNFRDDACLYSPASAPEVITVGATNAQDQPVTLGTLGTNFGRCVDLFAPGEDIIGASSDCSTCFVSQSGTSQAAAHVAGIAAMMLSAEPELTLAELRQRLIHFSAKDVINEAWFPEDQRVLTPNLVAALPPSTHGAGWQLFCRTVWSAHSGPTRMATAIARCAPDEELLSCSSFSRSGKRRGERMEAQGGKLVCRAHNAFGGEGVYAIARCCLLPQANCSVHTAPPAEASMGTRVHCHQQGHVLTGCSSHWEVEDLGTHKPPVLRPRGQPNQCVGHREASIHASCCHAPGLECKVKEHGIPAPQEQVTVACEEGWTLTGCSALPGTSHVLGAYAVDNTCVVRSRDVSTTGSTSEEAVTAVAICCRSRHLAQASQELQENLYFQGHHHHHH

| Compound | IC50 [1] [nM] | IC50 [2] [µM] | IC50 [3] [nM] | EC50 [4] [nM] |
| --- | --- | --- | --- | --- |
| COc1cccn(-c2ccc(N[C@H]3CC[C@H](Nc4cnc(C)cn4)C3)nc2)c1=O (racemic) [Example 170, rel-3-Methoxy-6′-(((1R,3R)-3-((5-methylpyrazin-2-yl)amino)cyclopentyl)amino)-2H-[1,3′-bipyridin]-2-one] | > 40100 | 7 | 11 | 200 |
| COc1cccn(-c2ccc(N[C@H]3CC[C@H](Nc4cnc(C)cn4)C3)nc2)c1=O (relative stereo) [Example 172, rel-3-Methoxy-6′-(((1R,3R)-3-((5-methylpyrazin-2-yl)amino)cyclopentyl)amino)-2H-[1,3′-bipyridin]-2-one] | > 40100 | 3.7 | 5.3 | 100 |
| Cc1ncc(N[C@H]2CC[C@H](Nc3ccc(-n4c(=O)n(C)c5ccccc54)cn3)C2)nc1C [Example 11, 1-(6-(((1S,3S)-3-((5,6-Dimethylpyrazin-2-yl)amino)cyclopentyl)amino)pyridin-3-yl)-3-methyl-1,3-dihydro-2H-benzo[d]imidazol-2-one] | 20200 | > 10 | 3.2 | 300 |
| COc1cccn(-c2ccc(N[C@H]3CC[C@H](Nc4cnc(C)c(C)n4)C3)nc2)c1=O [Example 12, 6′-(((1S,3S)-3-((5,6-Dimethylpyrazin-2-yl)amino)cyclopentyl)amino)-3-methoxy-2H-[1,3′-bipyridin]-2-one] | > 40000 | > 10 | 13 | 100 |
| COc1cccn(-c2ccc(N[C@H]3CC[C@H](Nc4cnc(Cl)cn4)C3)nc2)c1=O [Example 13, 6′-(((1S,3S)-3-((5-Chloropyrazin-2-yl)amino)cyclopentyl)amino)-3-methoxy-2H-[1,3′-bipyridin]-2-one] | 35600 | > 10 | 4 | 200 |
| Cc1ncc(N[C@H]2CC[C@H](Nc3ccc(-n4cc(C(=O)O)ccc4=O)cn3)C2)nc1C [Example 14, 6′-(((1S,3S)-3-((5,6-Dimethylpyrazin-2-yl)amino)cyclopentyl)amino)-2-oxo-2H-[1,3′-bipyridine]-5-carboxylic acid] | > 40000 | > 10 | 52 | 200 |
| Cc1ncc(N[C@H]2CC[C@H](Nc3ccc(-n4cccc(Cl)c4=O)cn3)C2)nc1C [Example 19, 3-Chloro-6′-(((1S,3S)-3-((5,6-dimethylpyrazin-2-yl)amino)cyclopentyl)amino)-2H-[1,3′-bipyridin]-2-one] | 24600 | > 10 | 5.3 | 100 |
| Cc1ncc(N[C@H]2CC[C@H](Nc3ccc(-n4c(=O)ccc5cccnc54)cn3)C2)nc1C [Example 20, 1-(6-(((1S,3S)-3-((5,6-Dimethylpyrazin-2-yl)amino)cyclopentyl)amino)pyridin-3-yl)-1,8-naphthyridin-2 (1H)-one] | > 40000 | > 10 | 17 | 100 |
| Cc1ncc(N[C@H]2CC[C@H](Nc3ccc(-n4c(=O)n(C)c5cccnc54)cn3)C2)nc1C [Example 21, 3-(6-(((1S,3S)-3-((5,6-Dimethylpyrazin-2-yl)amino)cyclopentyl)amino)pyridin-3-yl)-1-methyl-1,3-dihydro-2H-imidazo[4,5-b]pyridin-2-one] | 33200 | > 10 | 11 | 100 |
| Cc1ncc(N[C@H]2CC[C@H](Nc3ccc(-n4cccc(C#N)c4=O)cn3)C2)nc1C [Example 23, 6′-(((1S,3S)-3-((5,6-Dimethylpyrazin-2-yl)amino)cyclopentyl)amino)-2-oxo-2H-[1,3′-bipyridine]-3-carbonitrile] | 35900 | > 10 | 8.8 | 700 |
| O=c1[nH]c2ccccc2n1-c1ccc(N[C@H]2CC[C@H](Nc3cnc(Cl)cn3)C2)nc1 [Example 31, 1-(6-(((1S,3S)-3-((5-Chloropyrazin-2-yl)amino)cyclopentyl)amino)pyridin-3-yl)-1,3-dihydro-2H-benzo[d]imidazol-2-one] | 8200 | > 10 | 3.7 | 200 |
| O=c1ccc(-c2nnn[nH]2)cn1-c1ccc(N[C@H]2CC[C@H](Nc3cnc(Cl)cn3)C2)nc1 [Example 179, 6′-(((1S,3S)-3-((5-Chloropyrazin-2-yl)amino)cyclopentyl)amino)-5-(1H-tetrazol-5-yl)-2H-[1,3′-bipyridin]-2-one] |  | 6.9 | 4.7 | 100 |
| Cc1cnc(N[C@H]2CC[C@H](Nc3ccc(N4C(=O)CCc5cccnc54)cn3)C2)cn1 [Example 276, 1-(6-(((1S,3S)-3-((5-Methylpyrazin-2-yl)amino)cyclopentyl)amino)pyridin-3-yl)-3,4-dihydro-1,8-naphthyridin-2 (1H)-one] | > 40000 | > 10 | 80 |  |
| Cc1cnc(N[C@H]2CC[C@H](Nc3ccc(-n4nccc(OC(F)F)c4=O)cn3)C2)cn1 [Example 282, 4-(Difluoromethoxy)-2-(6-(((1S,3S)-3-((5-methylpyrazin-2-yl)amino)cyclopentyl)amino)pyridin-3-yl)pyridazin-3 (2H)-one] | > 40100 | > 10 | 10 |  |
